The values below come from patent US11834698B2, “Process for determining enzyme activity in a cell by activity-based reporter gene technology (ABRGT)” (INDIAN INSTITUTE OF SCIENCE EDUCATION AND RESEARCH, priority 2018, dated 2023).

Peptide text beside a SMILES is read from it. * marks the point of attachment. Cbz = O=C(OCc1ccccc1)*; CH2F = FC*

This assay deals with T1, caspase-7 GFPspark (Homo sapiens, UniProt P55210).
T1 construct: host or cells: MCF-7, HEK-293
T1 sequence (P55210 24-198 limits assumed): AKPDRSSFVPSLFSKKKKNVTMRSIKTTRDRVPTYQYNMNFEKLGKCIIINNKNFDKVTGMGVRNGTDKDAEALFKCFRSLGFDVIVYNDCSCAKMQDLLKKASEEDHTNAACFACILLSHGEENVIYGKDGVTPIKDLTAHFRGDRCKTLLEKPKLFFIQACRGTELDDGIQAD
T1 sequence (P55210 207-303 limits assumed): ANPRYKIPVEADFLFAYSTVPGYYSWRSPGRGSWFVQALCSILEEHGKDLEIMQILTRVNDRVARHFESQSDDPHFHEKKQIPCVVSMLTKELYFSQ
As to the kind of experiment: AbRGT FRET imaging / acceptor photobleaching, caspase-7 GFPspark in MCF-7 cells. The assay is classed as cell-based. The settings on record: for effect of inhibitor on FRET signal / signal in Rh channel in presence of inhibitor: MCF-7, inhibitor 50 μM pre-treatment, STS 6 h, probe 1. The method, then: FIGS. 13A and 13B depict specific detection of caspase-7 GFPspark in MCF-7 cells. […] Cells were fixed and the fluorescence signal was collected in GFP, FRET and Rh channel. […] Bar graph representing the rise in GFP intensity in ROI after rhodamine photobleaching was 89 a.u. as compared to the unbleached background, i.e., 9 a.u. FRET efficiency was calculated to be 32±2%.
FIG. 15 depicts confocal images of MCF-7 cells in GFP, FRET and Rh channel Caspase-7 GFPspark transfected MCF-7 cells were treated with STS (1 μM) for 6 h and labelled (a) (i) with probe 1 (1 μM) probe. Cells were pre-treated with (a) (ii) Z-VAD-FMK (50 μM) or (a) (iii) Q-VD-OPh (50 μM) pan-caspase inhibitors 1 h before the probe labelling. Caspase-9 GFPspark transfected MCF-7 cells were treated with STS (1 μM) for 4 h and labelled (b) (i) with probe 1 (1 μM) probe. Cells were pre-treated with (b) (ii) Z-VAD-FMK (50 μM) 1 h before probe labelling. Caspase-8 GFPspark overexpressing HEK-293 cells were treated with TRAIL (1 μg/ml) for 5 h and labelled (c) (i) with the probe 1. Cells were pre-treated with (c) (ii) Z-VAD-FMK (50 μM) 1 h before probe labelling.
Plasmids and transient transfection: GFPspark tagged plasmids; caspase-3 GFPspark tag (Cat: HG10050-ACG), caspase-7 GFPspark tag (HG10049-ACG), caspase-8 GFPspark (HG10078-ACG), caspase-9 GFPspark (HG11151-ACG) and cathepsin B GFPspark (HG10483-ACG) were procured from Sino Biological. For transfection, cells were seeded in a 6-well plate at a density of 0.4 million cells/well. At 60-70% confluency, cells were transiently transfected for 24 h at 37° C. with 1 μg of the GFPspark tagged plasmid DNA construct mixed with 5 μL of Lipofectamine 2000 (Invitrogen) according to the manufacturer's instructions. 24 h post-transfection, cells were visualized under the GFP filter for GFPspark expression under fluorescence microscope at 10× magnification.
Labelling of active caspases in apoptotic cells with FABP: After 24 h of transfection, cells were treated with STS (1 μM) drug or TRAIL (1 μg/ml) for apoptotic induction and incubated for 2, 4, 6 and 8 h at 37° C. in a humidified atmosphere of 5% CO2/95% air. Cells were gently scraped off from the surface at the end of apoptotic induction and centrifuged at 3000 rpm for 5 min. The cell pellet was resuspended in 300 μL of fresh DMEM containing 1 μM of probe for probe 2 and incubated for additional 2 h at 37° C. in a humidified atmosphere of 5% CO2. Cells were again centrifuged at 3000 rpm for 5 mins, and the supernatant was decanted. Cells were washed with 1×PBS, thrice finally resuspended in 20 μL of 1×PBS. The cell suspension was put on a slide, and a coverslip was placed over it. It was left for air drying. Slides were then imaged for GFP, FRET and rhodamine fluorescence signals under confocal microscopy.
Inhibitor assay: Cells were pre-treated with 50 μM of Z-VAD-FMK or Q-VD-OPh or E-64 inhibitor 1 h before probe 1 labelling and incubated for 1 h at 37° C. in a humidified atmosphere of 5% CO2. Cells were gently scraped off from the surface at the end of inhibitor treatment and centrifuged at 3000 rpm for 5 min Cells were then labelled with the probe 1 as described in the previous section.
Fluorescence imaging studies, FRET procedure: Images were collected on Zeiss LSM710 confocal microscope with 25 mW argon laser using Zen10 software. The laser was tuned to lines at 488 nm (excitation laser for GFPspark) and 561 nm (excitation laser for rhodamine) Cells were examined with a 40× 1.3 NA Zeiss oil immersion objective and 2.4× zoom. Images were collected in the three channels; GFP channel, argon laser tuned at 488 nm with 2% laser intensity and fluorescence emission was collected in emission range of 490-550 nm; rhodamine channel, argon laser tuned to 561 nm laser with 2% laser intensity and fluorescence emission was collected in range 550-650 nm and FRET channel with excitation laser of GFPSPARK channel and emission range of rhodamine channel. […]

For the compound `CC(C)[C@H](NC(=O)c1ccc2ccccc2n1)C(=O)N[C@@H](CC(=O)O)C(=O)COc1c(F)cccc1F` [Q-VD-OPh], the “effect of inhibitor on FRET signal” value was “abolished” and the “signal in Rh channel in presence of inhibitor” value was “significant punctate labelling”.
In the case of “Rhodamine-VAD-fluoromethyl ketone [probe 1]”, the “rise in GFP intensity in ROI after rhodamine photobleaching” value (MCF-7, STS 1 μM 5 h, probe 1 μM) was determined as 89 a.u. In addition, the “calculated FRET efficiency” value (MCF-7, STS 1 μM 5 h or 6 h, probe 1 μM) is listed as 32±2%.
Consider `COC(=O)C[C@H](NC(=O)[C@H](C)NC(=O)[C@@H](NC(=O)OCc1ccccc1)C(C)C)C(=O)CF` [Z-VAD-FMK] (Cbz-Val-Ala-Asp(OMe)-CH2F), for which the “effect of inhibitor on FRET signal” value is given as “completely abolished” and the “signal in Rh channel in presence of inhibitor” value was “completely abolished”.
